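Five concentrations, 48 hours, 96-well plates. Here, GI50 denotes the concentration required for 50% inhibition of growth. TGI: concentration producing complete growth inhibition.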
Columns and labels:
Experiment in all cases: NCI anticancer screen, dose series, 48 h
786-0 renal = system: 786-0 renal
A498 renal = system: A498 renal
A549 NSCLC = system: A549 NSCLC
ACHN renal = system: ACHN renal
BT-549 breast = system: BT-549 breast
CAKI-1 renal = system: CAKI-1 renal
CCRF-CEM leukemia = system: CCRF-CEM leukemia
COLO 205 colon = system: COLO 205 colon
DU-145 prostate = system: DU-145 prostate
EKVX NSCLC = system: EKVX NSCLC
HCC-2998 colon = system: HCC-2998 colon
HCT-116 colon = system: HCT-116 colon
HCT-15 colon = system: HCT-15 colon
HL-60(TB) leukemia = system: HL-60(TB) leukemia
HOP-62 NSCLC = system: HOP-62 NSCLC
HOP-92 NSCLC = system: HOP-92 NSCLC
HS 578T breast = system: HS 578T breast
HT29 colon = system: HT29 colon
IGROV1 ovarian = system: IGROV1 ovarian
K-562 leukemia = system: K-562 leukemia
KM12 colon = system: KM12 colon
LOX IMVI melanoma = system: LOX IMVI melanoma
M14 melanoma = system: M14 melanoma
MALME-3M melanoma = system: MALME-3M melanoma
MCF7 breast = system: MCF7 breast
MDA-MB-231 breast = system: MDA-MB-231 breast
MDA-MB-435 = system: MDA-MB-435
MOLT-4 leukemia = system: MOLT-4 leukemia
NCI-H226 lung = system: NCI-H226 lung
NCI-H23 lung = system: NCI-H23 lung
NCI-H460 lung = system: NCI-H460 lung
NCI-H522 lung = system: NCI-H522 lung
NCI/ADR-RES ovarian = system: NCI/ADR-RES ovarian
OVCAR-3 ovarian = system: OVCAR-3 ovarian
OVCAR-4 ovarian = system: OVCAR-4 ovarian
OVCAR-5 ovarian = system: OVCAR-5 ovarian
OVCAR-8 ovarian = system: OVCAR-8 ovarian
PC-3 prostate = system: PC-3 prostate
RPMI-8226 leukemia = system: RPMI-8226 leukemia
RXF 393 renal = system: RXF 393 renal
SF-268 CNS = system: SF-268 CNS
SF-295 CNS = system: SF-295 CNS
SF-539 CNS = system: SF-539 CNS
SK-MEL-2 melanoma = system: SK-MEL-2 melanoma
SK-MEL-28 melanoma = system: SK-MEL-28 melanoma
SK-MEL-5 melanoma = system: SK-MEL-5 melanoma
SK-OV-3 ovarian = system: SK-OV-3 ovarian
SN12C renal = system: SN12C renal
SNB-19 CNS = system: SNB-19 CNS
SNB-75 CNS = system: SNB-75 CNS
SR leukemia = system: SR leukemia
SW-620 colon = system: SW-620 colon
T-47D breast = system: T-47D breast
TK-10 renal = system: TK-10 renal
U251 CNS = system: U251 CNS
UACC-257 melanoma = system: UACC-257 melanoma
UACC-62 melanoma = system: UACC-62 melanoma
UO-31 renal = system: UO-31 renal

CCO/C=N/C1=C(C#N)C(c2ccc(Cl)cc2)c2sc3c(C)cccc3c2O1 (stereo unspecified) showed a GI50 (786-0 renal) of 976 nM, a TGI (786-0 renal) of 13900 nM and a GI50 (A498 renal) of 315 nM. It also gave a TGI (A498 renal) of 1480 nM, a GI50 (A549 NSCLC) of 749 nM and a TGI (A549 NSCLC) of 15100 nM. For the same compound, the GI50 (ACHN renal) was 631 nM, the TGI (ACHN renal) was 15100 nM and the GI50 (BT-549 breast) was 1830 nM. The TGI (BT-549 breast) was 11400 nM, the GI50 (CAKI-1 renal) was 532 nM and the TGI (CAKI-1 renal) was 18500 nM. It also gave a GI50 (CCRF-CEM leukemia) of 371 nM, a TGI (CCRF-CEM leukemia) of 19400 nM and a GI50 (COLO 205 colon) of 1990 nM. It also gave a TGI (COLO 205 colon) of 6930 nM, a GI50 (DU-145 prostate) of 758 nM and a TGI (DU-145 prostate) of 14400 nM. The GI50 (EKVX NSCLC) was 604 nM, the TGI (EKVX NSCLC) was 15600 nM and the GI50 (HCC-2998 colon) was 1510 nM. It also gave a TGI (HCC-2998 colon) of 8520 nM, a GI50 (HCT-116 colon) of 448 nM and a TGI (HCT-116 colon) of 11100 nM. For the same compound, the GI50 (HCT-15 colon) was 423 nM, the TGI (HCT-15 colon) was 10200 nM and the GI50 (HL-60(TB) leukemia) was 329 nM. For the same compound, the TGI (HL-60(TB) leukemia) was 13900 nM, the GI50 (HOP-62 NSCLC) was 574 nM and the TGI (HOP-62 NSCLC) was 18600 nM. It also gave a GI50 (HOP-92 NSCLC) of 188 nM, a TGI (HOP-92 NSCLC) of 3760 nM and a GI50 (HS 578T breast) of 414 nM. The TGI (HS 578T breast) was 11500 nM, the GI50 (HT29 colon) was 967 nM and the TGI (HT29 colon) was 11900 nM. It also gave a GI50 (IGROV1 ovarian) of 517 nM, a TGI (IGROV1 ovarian) of 15000 nM and a GI50 (K-562 leukemia) of 379 nM. For the same compound, the TGI (K-562 leukemia) was > 51300 nM, the GI50 (KM12 colon) was 551 nM and the TGI (KM12 colon) was 15700 nM. The GI50 (LOX IMVI melanoma) was 611 nM, the TGI (LOX IMVI melanoma) was 13000 nM and the GI50 (M14 melanoma) was 528 nM. For the same compound, the TGI (M14 melanoma) was 11900 nM, the GI50 (MALME-3M melanoma) was 689 nM and the TGI (MALME-3M melanoma) was 23400 nM. It also gave a GI50 (MCF7 breast) of 327 nM, a TGI (MCF7 breast) of 11600 nM and a GI50 (MDA-MB-231 breast) of 2190 nM. It also gave a TGI (MDA-MB-231 breast) of 15400 nM, a GI50 (MDA-MB-435) of 214 nM and a TGI (MDA-MB-435) of 516 nM. The GI50 (MOLT-4 leukemia) was 808 nM, the TGI (MOLT-4 leukemia) was > 88900 nM and the GI50 (NCI-H226 lung) was 1150 nM. It also gave a TGI (NCI-H226 lung) of 15400 nM, a GI50 (NCI-H23 lung) of 1330 nM and a TGI (NCI-H23 lung) of 19200 nM. It also gave a GI50 (NCI-H460 lung) of 406 nM, a TGI (NCI-H460 lung) of 7660 nM and a GI50 (NCI-H522 lung) of 398 nM. It also gave a TGI (NCI-H522 lung) of 5050 nM, a GI50 (NCI/ADR-RES ovarian) of 438 nM and a TGI (NCI/ADR-RES ovarian) of 13400 nM. The GI50 (OVCAR-3 ovarian) was 409 nM, the TGI (OVCAR-3 ovarian) was 7850 nM and the GI50 (OVCAR-4 ovarian) was 1350 nM. The TGI (OVCAR-4 ovarian) was 19900 nM, the GI50 (OVCAR-5 ovarian) was 2370 nM and the TGI (OVCAR-5 ovarian) was 15500 nM. It also gave a GI50 (OVCAR-8 ovarian) of 1190 nM, a TGI (OVCAR-8 ovarian) of 15900 nM and a GI50 (PC-3 prostate) of 377 nM. For the same compound, the TGI (PC-3 prostate) was 12100 nM, the GI50 (RPMI-8226 leukemia) was 408 nM and the TGI (RPMI-8226 leukemia) was 15800 nM. For the same compound, the GI50 (RXF 393 renal) was 275 nM, the TGI (RXF 393 renal) was 1330 nM and the GI50 (SF-268 CNS) was 1490 nM. The TGI (SF-268 CNS) was 19400 nM, the GI50 (SF-295 CNS) was 288 nM and the TGI (SF-295 CNS) was 2470 nM. It also gave a GI50 (SF-539 CNS) of 379 nM, a TGI (SF-539 CNS) of 1810 nM and a GI50 (SK-MEL-2 melanoma) of 1060 nM. For the same compound, the TGI (SK-MEL-2 melanoma) was 20800 nM, the GI50 (SK-MEL-28 melanoma) was 2480 nM and the TGI (SK-MEL-28 melanoma) was 22400 nM. The GI50 (SK-MEL-5 melanoma) was 845 nM, the TGI (SK-MEL-5 melanoma) was 10400 nM and the GI50 (SK-OV-3 ovarian) was 2700 nM. The TGI (SK-OV-3 ovarian) was 22100 nM, the GI50 (SN12C renal) was 865 nM and the TGI (SN12C renal) was 12600 nM. The GI50 (SNB-19 CNS) was 566 nM, the TGI (SNB-19 CNS) was 16300 nM and the GI50 (SNB-75 CNS) was 234 nM. For the same compound, the TGI (SNB-75 CNS) was 1410 nM, the GI50 (SR leukemia) was 542 nM and the TGI (SR leukemia) was > 47200 nM. It also gave a GI50 (SW-620 colon) of 451 nM, a TGI (SW-620 colon) of 15800 nM and a GI50 (T-47D breast) of 462 nM. The TGI (T-47D breast) was 29200 nM, the GI50 (TK-10 renal) was 9740 nM and the TGI (TK-10 renal) was 30000 nM. It also gave a GI50 (U251 CNS) of 609 nM, a TGI (U251 CNS) of 12700 nM and a GI50 (UACC-257 melanoma) of 12100 nM. The TGI (UACC-257 melanoma) was 32100 nM, the GI50 (UACC-62 melanoma) was 447 nM and the TGI (UACC-62 melanoma) was 14800 nM. For the same compound, the GI50 (UO-31 renal) was 562 nM and the TGI (UO-31 renal) was 17100 nM.

From PubChem BioAssay (NCI)
